Test results: patent US20240336654A1, “ANTIMICROBIAL PEPTIDOMIMETICS” (SPEXIS AG, priority 2021, published 2024)
Where a SMILES comes first, the peptide text is derived from it. Bridges are numbered along the chain shown (N, C = ends). [ ]: non-standard residue; d: D form. The star is where a group is joined. Val(Nα-amidino) = CC(C)[C@H](NC(=N)N)C(=O)*; Hyp = O=C(O)[C@@H]1C[C@@H](O)CN1; Cit = NC(=O)NCCC[C@H](N)C(=O)O; Pen = CC(C)(S)[C@H](N)C(=O)O; ΔPro = O=C(O)[C@@H]1C=CCN1; dDab = NCC[C@@H](N)C(=O)O; Dab = NCC[C@H](N)C(=O)O

Assays:
Assay type in all cases: cell-based
[1] = tested on: Escherichia coli ATCC 25922; conditions: ATCC 25922
How it was run: (§1)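 CLSI broth microdilution, slightly modified: cation-adjusted Mueller-Hinton II broth with about 5×10^5 CFU/mL from a 0.5 McFarland suspension, and two-fold serial peptide dilutions with Polysorbate 80 at 0.002% final. MIC (μg/mL) was the lowest concentration with no visible growth after 18-20 hours at 35° C.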

[2] = tested on: Escherichia coli MCR-1 Af 45; conditions: MCR-1 Af 45
How it was run: as §1

[3] = tested on: Klebsiella pneumoniae SSI3010; conditions: SSI3010
How it was run: as §1

[4] = tested on: human red blood cells (hRBC); conditions: red cells of human, 1 h, 200 μg/mL
How it was run: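 Peptides at 200 μg/mL incubated 1 h at 37 °C with 20% (v/v) washed human RBC, shaking. Hemolysis from supernatant OD540, expressed as percent of 2.5% Triton X-100 lysis, with PBS as 0%.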

| Escherichia coli ATCC 25922 MIC [1] | Escherichia coli MCR-1 Af45 MIC [2] | Klebsiella pneumoniae SSI3010 MIC [3] | Compound | Hemolysis at 0.2 g/L [4] |
| --- | --- | --- | --- | --- |
| 0.125 µg/mL | 0.125 µg/mL | 0.25 µg/mL | CC[C@H](C)[C@H](NC(=O)[C@@H]1C[C@@H](O)CN1C(=O)[C@@H](NC(=N)N)C(C)C)C(=O)N[C@@H]1C(=O)N[C@@H](Cc2ccc(O)cc2)C(=O)N[C@@H](CO)C(=O)N[C@@H](CC(N)=O)C(=O)N[C@@H](CCCNC(=N)N)C(=O)N[C@@H](CCN)C(=O)N[C@@H]([C@@H](C)O)C(=O)N[C@H](CCN)C(=O)N[C@@H](CC(N)=O)C(=O)N[C@@H](CCN)C(=O)N[C@@H](CCN)C(=O)N[C@H](C(=O)N[C@@H](Cc2ccc(O)cc2)C(=O)O)CSSC1(C)C [Example 107, Gua-Val-Hyp-Ile-Pen-Tyr-Ser-Asn-Arg-Dab-Thr-^DDab-Asn-Dab-Dab-Cys-Tyr] ({Val(Nα-amidino)}-[Hyp]I[Pen]YSNR[Dab]T[dDab]N[Dab][Dab]CY-OH; disulfide 3-14) | <1% |
| 0.25 µg/mL | 0.125 µg/mL | 0.25 µg/mL | CC[C@H](C)[C@H](NC(=O)[C@@H]1C[C@@H](O)CN1C(=O)[C@@H](NC(=N)N)C(C)C)C(=O)N[C@@H]1C(=O)N[C@@H](Cc2ccc(O)cc2)C(=O)N[C@@H]([C@@H](C)O)C(=O)N[C@@H](CC(N)=O)C(=O)N[C@@H](CCCNC(=N)N)C(=O)N[C@@H](CCN)C(=O)N[C@@H]([C@@H](C)O)C(=O)N[C@H](CCN)C(=O)N[C@@H](CCCCN)C(=O)N[C@@H](CCN)C(=O)N[C@@H](CO)C(=O)N[C@H](C(=O)N[C@@H](Cc2ccc(O)cc2)C(=O)O)CSSC1(C)C [Example 108, Gua-Val-Hyp-Ile-Pen-Tyr-Thr-Asn-Arg-Dab-Thr-Dab-Lys-Dab-S-Cys-Tyr] ({Val(Nα-amidino)}-[Hyp]I[Pen]YTNR[Dab]T[dDab]K[Dab]SCY-OH; disulfide 3-14) | <1% |
| 0.0625 µg/mL | 0.03125 µg/mL | 0.125 µg/mL | CC[C@H](C)[C@H](NC(=O)[C@@H]1C=CCN1C(=O)[C@@H](NC(=N)N)C(C)C)C(=O)N[C@@H]1C(=O)N[C@@H](Cc2ccc(O)cc2)C(=O)N[C@@H]([C@@H](C)O)C(=O)N[C@@H](CC(N)=O)C(=O)N[C@@H](CCCNC(=N)N)C(=O)N[C@@H](CCN)C(=O)N[C@@H]([C@@H](C)O)C(=O)N[C@H](CCN)C(=O)N[C@@H](CCCCN)C(=O)N[C@@H](CCN)C(=O)N[C@@H](CCN)C(=O)N[C@H](C(=O)N[C@@H](Cc2ccc(O)cc2)C(=O)O)CSSC1(C)C [Example 109, Gua-Val-Pro(3,4dehydro)-Ile-Pen-Tyr-Thr-Asn-Arg-Dab-Thr-^DDab-Lys-Dab-Dab-Cys-Tyr] ({Val(Nα-amidino)}-[ΔPro]I[Pen]YTNR[Dab]T[dDab]K[Dab][Dab]CY-OH; disulfide 3-14) | <1% |
| 0.0625 µg/mL | 0.0625 µg/mL | 0.125 µg/mL | CC[C@H](C)[C@H](NC(=O)[C@@H]1C=CCN1C(=O)[C@@H](NC(=N)N)C(C)C)C(=O)N[C@@H]1C(=O)N[C@@H](Cc2ccc(O)cc2)C(=O)N[C@@H](CO)C(=O)N[C@@H](CC(N)=O)C(=O)N[C@@H](CCCNC(=N)N)C(=O)N[C@@H](CCN)C(=O)N[C@@H]([C@@H](C)O)C(=O)N[C@H](CCN)C(=O)N[C@@H](CCCCN)C(=O)N[C@@H](CCN)C(=O)N[C@@H](CCN)C(=O)N[C@H](C(=O)N[C@@H](Cc2ccc(O)cc2)C(=O)O)CSSC1(C)C [Example 110, Gua-Val-Pro(3,4dehydro)-Ile-Pen-Tyr-Ser-Asn-Arg-Dab-Thr-^DDab-Lys-Dab-Dab-Cys-Tyr] ({Val(Nα-amidino)}-[ΔPro]I[Pen]YSNR[Dab]T[dDab]K[Dab][Dab]CY-OH; disulfide 3-14) | <1% |
| 0.125 µg/mL | 0.0625 µg/mL | 0.125 µg/mL | CC[C@H](C)[C@H](NC(=O)[C@@H]1C=CCN1C(=O)[C@@H](NC(=N)N)C(C)C)C(=O)N[C@@H]1C(=O)N[C@@H](Cc2ccc(O)cc2)C(=O)N[C@@H]([C@@H](C)O)C(=O)N[C@@H](CC(N)=O)C(=O)N[C@@H](CCCNC(=N)N)C(=O)N[C@@H](CCN)C(=O)N[C@@H]([C@@H](C)O)C(=O)N[C@H](CCN)C(=O)N[C@@H](CO)C(=O)N[C@@H](CCN)C(=O)N[C@@H](CCN)C(=O)N[C@H](C(=O)N[C@@H](Cc2ccc(O)cc2)C(=O)O)CSSC1(C)C [Example 111, Gua-Val-Pro(3,4dehydro)-Ile-Pen-Tyr-Thr-Asn-Arg-Dab-Thr-^DDab-Ser-Dab-Dab-Cys-Tyr] ({Val(Nα-amidino)}-[ΔPro]I[Pen]YTNR[Dab]T[dDab]S[Dab][Dab]CY-OH; disulfide 3-14) | <1% |
| 0.125 µg/mL | 0.125 µg/mL | 0.25 µg/mL | CC[C@H](C)[C@H](NC(=O)[C@@H]1C[C@@H](O)CN1C(=O)[C@@H](NC(=N)N)C(C)C)C(=O)N[C@H]1CCNC(=O)CC[C@@H](C(=O)N[C@@H](Cc2ccc(O)cc2)C(=O)O)NC(=O)[C@H](CCN)NC(=O)[C@H](CCN)NC(=O)[C@H](CO)NC(=O)[C@@H](CCN)NC(=O)[C@H]([C@@H](C)O)NC(=O)[C@H](CCN)NC(=O)[C@H](CCCNC(=N)N)NC(=O)[C@H](CC(N)=O)NC(=O)[C@H]([C@@H](C)O)NC(=O)[C@H](Cc2ccc(O)cc2)NC1=O [Example 112, Gua-Val-Hyp-Ile-Dab-Tyr-Thr-Asn-Arg-Dab-Thr-^DDab-Ser-Dab-Dab-Glu-Tyr] ({Val(Nα-amidino)}-[Hyp]I[Dab]YTNR[Dab]T[dDab]S[Dab][Dab]EY-OH; lactam 3-14) | <1% |
| 0.125 µg/mL | 0.125 µg/mL | 0.25 µg/mL | CC[C@H](C)[C@H](NC(=O)[C@@H]1C[C@@H](O)CN1C(=O)[C@@H](NC(=N)N)C(C)C)C(=O)N[C@H]1CCNC(=O)CC[C@@H](C(=O)N[C@@H](Cc2ccc(O)cc2)C(=O)O)NC(=O)[C@H](CCN)NC(=O)[C@H](CCN)NC(=O)[C@H]([C@@H](C)O)NC(=O)[C@@H](CCN)NC(=O)[C@H]([C@@H](C)O)NC(=O)[C@H](CCN)NC(=O)[C@H](CCCNC(=N)N)NC(=O)[C@H](CC(N)=O)NC(=O)[C@H]([C@@H](C)O)NC(=O)[C@H](Cc2ccc(O)cc2)NC1=O [Example 113, Gua-Val-Hyp-Ile-Dab-Tyr-Thr-Asn-Arg-Dab-Thr-^DDab-Thr-Dab-Dab-Glu-Tyr] ({Val(Nα-amidino)}-[Hyp]I[Dab]YTNR[Dab]T[dDab]T[Dab][Dab]EY-OH; lactam 3-14) | <1% |
| 0.125 µg/mL | 0.125 µg/mL | 0.5 µg/mL | CC[C@H](C)[C@H](NC(=O)[C@@H]1C[C@@H](O)CN1C(=O)[C@@H](NC(=N)N)C(C)C)C(=O)N[C@H]1CCNC(=O)CC[C@@H](C(=O)N[C@@H](Cc2ccc(O)cc2)C(=O)O)NC(=O)[C@H](CCN)NC(=O)[C@H](CCN)NC(=O)[C@H](CCCNC(N)=O)NC(=O)[C@@H](CCN)NC(=O)[C@H]([C@@H](C)O)NC(=O)[C@H](CCN)NC(=O)[C@H](CCCNC(=N)N)NC(=O)[C@H](CC(N)=O)NC(=O)[C@H]([C@@H](C)O)NC(=O)[C@H](Cc2ccc(O)cc2)NC1=O [Example 114, Gua-Val-Hyp-Ile-Dab-Tyr-Thr-Asn-Arg-Dab-Thr-^DDab-Cit-Dab-Dab-Glu-Tyr] ({Val(Nα-amidino)}-[Hyp]I[Dab]YTNR[Dab]T[dDab][Cit][Dab][Dab]EY-OH; lactam 3-14) | <1% |
| 0.125 µg/mL | 0.0625 µg/mL | 0.125 µg/mL | CC[C@H](C)[C@H](NC(=O)[C@@H]1C[C@@H](O)CN1C(=O)[C@@H](NC(=N)N)C(C)C)C(=O)N[C@@H]1C(=O)N[C@@H](Cc2ccc(O)cc2)C(=O)N[C@@H](CCCNC(N)=O)C(=O)N[C@@H](CC(N)=O)C(=O)N[C@@H](CCCNC(=N)N)C(=O)N[C@@H](CCN)C(=O)N[C@@H]([C@@H](C)O)C(=O)N[C@H](CCN)C(=O)N[C@@H](CCCCN)C(=O)N[C@@H](CCN)C(=O)N[C@@H](CCN)C(=O)N[C@H](C(=O)N[C@@H](Cc2ccc(O)cc2)C(=O)O)CSSC1(C)C [Example 115, Gua-Val-Hyp-Ile-Pen-Tyr-Cit-Asn-Arg-Dab-Thr-^DDab-Lys-Dab-Dab-Cys-Tyr] ({Val(Nα-amidino)}-[Hyp]I[Pen]Y[Cit]NR[Dab]T[dDab]K[Dab][Dab]CY-OH; disulfide 3-14) | <1% |
| 0.0625 µg/mL | 0.0625 µg/mL | 0.125 µg/mL | CC[C@H](C)[C@H](NC(=O)[C@@H]1C[C@@H](O)CN1C(=O)[C@@H](NC(=N)N)C(C)C)C(=O)N[C@H]1CCNC(=O)CC[C@@H](C(=O)N[C@@H](Cc2ccc(O)cc2)C(=O)O)NC(=O)[C@H](CCN)NC(=O)[C@H](CCN)NC(=O)[C@H](CCCCN)NC(=O)[C@@H](CCN)NC(=O)[C@H]([C@@H](C)O)NC(=O)[C@H](CCN)NC(=O)[C@H](CCCNC(=N)N)NC(=O)[C@H](CC(N)=O)NC(=O)[C@H](CCCNC(N)=O)NC(=O)[C@H](Cc2ccc(O)cc2)NC1=O [Example 116, Gua-Val-Hyp-Ile-Dab-Tyr-Cit-Asn-Arg-Dab-Thr-^DDab-Lys-Dab-Dab-Glu-Tyr] ({Val(Nα-amidino)}-[Hyp]I[Dab]Y[Cit]NR[Dab]T[dDab]K[Dab][Dab]EY-OH; lactam 3-14) | <1% |
